System: Liver microsomes
Conditions: human

Point of comparison: O=C1N(CCN2CCC(C(F)(F)F)CC2)CCN1c1cccc(Cl)c1, CL 17.6 mL/min/g. Against it:
- N#Cc1cc(N2CCN(CCN3CCC(C(F)(F)F)CC3)C2=O)ccc1F — 1.9-fold lower, 9.1 mL/min/g
- N#Cc1cccc(N2CCN(CCN3Cc4ccccc4C3)C2=O)c1 — 11-fold lower, 1.6 mL/min/g
- O=C1N(CCN2Cc3ccccc3C2)CCN1c1cccc(Cl)c1 — 2-fold lower, 8.9 mL/min/g

With CC(C)N1CCN(CCN2CCN(c3cccc(C#N)c3)C2=O)CC1 the CL was < 0.5 mL/min/g.

Source: ChEMBL document CHEMBL1152393, “Dopamine D(3) receptor antagonists: The quest for a potentially selective PET ligand. Part two: Lead optimization” (Bioorg Med Chem Lett, 2009)
